Laboratory results reported in ChEMBL document CHEMBL3045758, “Quantitative Structure-Activity Relationships of Fungicidal N-Phenylformamidoximes” (J Pestic Sci, 1992).

Experiments:
[1] = 1-octanol/water distribution coefficient, log P of the compound; format: physicochemical
[2] = test system: Phaseolus vulgaris; assay: Phytotoxicity against Phaseolus vulgaris (kidney bean) assessed as necrosis of leaf at 100 ppm after 7 days in greenhouse conditions; format: organism-based; conditions: in vivo, 168 h
[3] = test system: Botrytis cinerea; assay: Fungicidal activity against benzimidazole-resistant Botryotinia fuckeliana infected kidney bean leaf at 100 ppm after 7 days in greenhouse conditions by detached leaf test; format: functional
[4] = test system: Botrytis cinerea; assay: Fungicidal activity against benzimidazole-resistant Botryotinia fuckeliana at 6.2 ppm after 48 hr by poisoned food technique; format: functional
[5] = test system: Botrytis cinerea; assay: Fungicidal activity against benzimidazole-resistant Botryotinia fuckeliana at 200 ppm after 48 hr by poisoned food technique; format: functional
[6] = test system: Botrytis cinerea; assay: Fungicidal activity against benzimidazole-resistant Botryotinia fuckeliana after 48 hr by poisoned food technique; format: functional, organism-based
[7] = test system: Botrytis cinerea; assay: Fungicidal activity against benzimidazole-resistant Botryotinia fuckeliana at 25 ppm after 48 hr by poisoned food technique; format: functional
[8] = test system: Botrytis cinerea; assay: Fungicidal activity against benzimidazole-sensitive Botryotinia fuckeliana after 48 hr by poisoned food technique; format: functional, organism-based
[9] = test system: Botrytis cinerea; assay: Resistance ratio of EC50 for benzimidazole-resistant Botryotinia fuckeliana to EC50 for benzimidazole-sensitive Botryotinia fuckeliana; format: functional
[10] = test system: Botrytis cinerea; assay: Ratio of DMPF EC50 to compound EC50 for benzimidazole-resistant Botryotinia fuckeliana; format: functional
[11] = Botrytis cinerea, 48 h, read-out: pEC50 (converted)

Compound: CCO/N=C/Nc1cc(Cl)cc(Cl)c1
- logP [1]: 3
- Activity [2]: <= 10%
- Activity [3]: <25%
- Activity [4]: <25%
- Activity [5]: 100%
- EC50 [6, 11]: 12 µM
- Activity [7]: 26%

Compound: CO/N=C/Nc1cc(Cl)cc(Cl)c1
- EC50 [6]: 3 ppm
- EC50 [8]: 50 ppm
- Ratio EC50 [9]: 10000

Compound: C#CCc1c(Cl)cc(N/C=N/OC)cc1Cl
- logP [1]: 3.3
- Activity [2]: Non-toxic
- EC50 [6]: 0.005 ppm
- EC50 [6, 11]: 0.0182 µM
- EC50 [8]: 30 ppm
- Ratio EC50 [9]: 10
- Ratio EC50 [10]: 600

Compound: CCO/N=C/Nc1ccccc1
- Activity [2]: Non-toxic
- Activity [3]: <25%
- Activity [4]: <25%
- Activity [5]: <25%
- Activity [7]: <25%

Compound: CCO/N=C/Nc1ccccc1Cl
- Activity [2]: <= 10%
- Activity [3]: <25%
- Activity [4]: <25%
- Activity [5]: 100%
- Activity [7]: <25%

Compound: CCO/N=C/Nc1cccc(Cl)c1
- Activity [2]: <= 10%
- Activity [3]: <25%
- Activity [4]: <25%
- Activity [5]: 50%
- Activity [7]: <25%

Compound: CCO/N=C/Nc1ccc(Cl)cc1
- Activity [2]: Non-toxic
- Activity [3]: <25%
- Activity [4]: <25%
- Activity [5]: 70%
- Activity [7]: <25%

Compound: CCO/N=C/Nc1ccccc1CC
- Activity [2]: Non-toxic
- Activity [3]: <25%
- Activity [4]: 26%
- Activity [5]: 100%
- Activity [7]: 100%

Compound: CCO/N=C/Nc1cccc(CC)c1
- Activity [2]: Non-toxic
- Activity [3]: <25%
- Activity [4]: <25%
- Activity [5]: 70%
- Activity [7]: <25%

Compound: CCO/N=C/Nc1ccc(CC)cc1
- Activity [2]: Non-toxic
- Activity [3]: <25%
- Activity [4]: <25%
- Activity [5]: 26%
- Activity [7]: <25%

Compound: CCO/N=C/Nc1c(Cl)c(Cl)cc(Cl)c1Cl [N'-ETHOXY-N-(2,3,5,6-TETRACHLOROPHENYL)FORMIMIDAMIDE]
- Activity [2]: Non-toxic
- Activity [3]: <25%
- Activity [4]: <25%
- Activity [5]: <25%
- Activity [7]: <25%

Compound: CCO/N=C/Nc1cc(Cl)c(Cl)cc1Cl [N'-ETHOXY-N-(2,4,5-TRICHLOROPHENYL)FORMIMIDAMIDE]
- Activity [2]: Non-toxic
- Activity [3]: <25%
- Activity [4]: <25%
- Activity [5]: 26%
- Activity [7]: <25%

Compound: CCO/N=C/Nc1c(Cl)cc(Cl)cc1Cl [N'-ETHOXY-N-(2,4,6-TRICHLOROPHENYL)FORMIMIDAMIDE]
- Activity [2]: 11%
- Activity [3]: <25%
- Activity [4]: <25%
- Activity [5]: 100%
- Activity [7]: <25%

Compound: CCO/N=C/Nc1cc(C)cc(C)c1OCC [N'-ETHOXY-N-(2-ETHOXY-3,5-DIMETHYLPHENYL)FORMIMIDAMIDE]
- Activity [2]: Non-toxic
- Activity [3]: <25%
- Activity [4]: 50%
- Activity [5]: 100%
- Activity [7]: 100%

Compound: CCO/N=C/Nc1cc(Cl)c(Cl)c(Cl)c1 [N'-ETHOXY-N-(3,4,5-TRICHLOROPHENYL)FORMIMIDAMIDE]
- Activity [2]: Non-toxic
- Activity [3]: <25%
- Activity [4]: <25%
- Activity [5]: 26%
- Activity [7]: <25%

Compound: CCO/N=C/Nc1cc(OCC)c(OCC)c(OCC)c1 [N'-ETHOXY-N-(3,4,5-TRIETHOXYPHENYL)FORMIMIDAMIDE]
- Activity [2]: Non-toxic
- Activity [3]: <25%
- Activity [4]: <25%
- Activity [5]: 100%
- Activity [7]: 26%

Compound: CCO/N=C/Nc1ccc(OCC)cc1C [N'-ETHOXY-N-(4-ETHOXY-2-METHYLPHENYL)FORMIMIDAMIDE]
- Activity [2]: <= 10%
- Activity [3]: <25%
- Activity [4]: <25%
- Activity [5]: <25%
- Activity [7]: <25%

Compound: CCO/N=C/Nc1cc(C)c(OCC)c(C)c1 [N'-ETHOXY-N-(4-ETHOXY-3,5-DIMETHYLPHENYL)FORMIMIDAMIDE]
- Activity [2]: <= 10%
- Activity [3]: 50%
- Activity [4]: 50%
- Activity [5]: 100%
- Activity [7]: 100%

Compound: CCO/N=C/Nc1ccc(OCC)c(C)c1 [N'-ETHOXY-N-(4-ETHOXY-3-METHYLPHENYL)FORMIMIDAMIDE]
- Activity [2]: 11%
- Activity [3]: <25%
- Activity [4]: <25%
- Activity [5]: 100%
- Activity [7]: <25%

Compound: CCO/N=C/Nc1cc(C)c(OCC)c(OCC)c1 [N-(3,4-DIETHOXY-5-METHYLPHENYL)-N'-ETHOXYFORMIMIDAMIDE]
- Activity [2]: Non-toxic
- Activity [3]: 70%
- Activity [4]: 100%
- Activity [5]: 100%
- Activity [7]: 100%

Compound: CCO/N=C/Nc1cc(Cl)cc(Cl)c1OCC [N-(3,5-DICHLORO-2-ETHOXYPHENYL)-N'-ETHOXYFORMIMIDAMIDE]
- Activity [2]: Non-toxic
- Activity [3]: <25%
- Activity [4]: 70%
- Activity [5]: 100%
- Activity [7]: 90%

Compound: CCO/N=C/Nc1cc(Cl)c(OCC)c(Cl)c1 [N-(3,5-DICHLORO-4-ETHOXYPHENYL)-N'-ETHOXYFORMIMIDAMIDE]
- Activity [2]: Non-toxic
- Activity [3]: 100%
- Activity [4]: 90%
- Activity [5]: 100%
- Activity [7]: 100%

Compound: CCO/N=C/Nc1cc(Cl)c(C)c(Cl)c1 [N-(3,5-DICHLORO-4-METHYLPHENYL)-N'-ETHOXYFORMIMIDAMIDE]
- Activity [2]: Non-toxic
- Activity [3]: <25%
- Activity [4]: <25%
- Activity [5]: <25%
- Activity [7]: <25%

Compound: CCO/N=C/Nc1cc(Cl)c(OCC)c(OCC)c1 [N-(3-CHLORO-4,5-DIETHOXYPHENYL)-N'-ETHOXYFORMIMIDAMIDE]
- Activity [2]: Non-toxic
- Activity [3]: 100%
- Activity [4]: 100%
- Activity [5]: 100%
- Activity [7]: 100%

Compound: CCO/N=C/Nc1ccc(OCC)c(Cl)c1 [N-(3-CHLORO-4-ETHOXYPHENYL)-N'-ETHOXYFORMIMIDAMIDE]
- Activity [2]: Non-toxic
- Activity [3]: <25%
- Activity [4]: <25%
- Activity [5]: 100%
- Activity [7]: 26%

Compound: CCO/N=C/Nc1ccc(C)c(Cl)c1 [N-(3-CHLORO-4-METHYLPHENYL)-N'-ETHOXYFORMIMIDAMIDE]
- Activity [2]: <= 10%
- Activity [3]: <25%
- Activity [4]: <25%
- Activity [5]: 100%
- Activity [7]: 26%

Compound: CCO/N=C/Nc1ccc(Cl)cc1C [N-(4-CHLORO-2-METHYLPHENYL)-N'-ETHOXYFORMIMIDAMIDE]
- Activity [2]: 11%
- Activity [3]: <25%
- Activity [4]: <25%
- Activity [5]: 70%
- Activity [7]: <25%

Compound: CCO/N=C/Nc1cc(Cl)ccc1OCC [N-(5-CHLORO-2-ETHOXYPHENYL)-N'-ETHOXYFORMIMIDAMIDE]
- Activity [2]: <= 10%
- Activity [3]: <25%
- Activity [4]: <25%
- Activity [5]: 100%
- Activity [7]: 100%
